Measurements as given in patent publication US10058586B2, “Use of human small leucine zipper protein in adipocyte differentiation procedure” (Korea University Research and Business Foundation, priority 2013, dated 2018).
d = 2'-deoxy (DNA)

Target: T1, PPARγ2 (Homo sapiens, UniProt P37231)
T1 sequence (P37231 1-505): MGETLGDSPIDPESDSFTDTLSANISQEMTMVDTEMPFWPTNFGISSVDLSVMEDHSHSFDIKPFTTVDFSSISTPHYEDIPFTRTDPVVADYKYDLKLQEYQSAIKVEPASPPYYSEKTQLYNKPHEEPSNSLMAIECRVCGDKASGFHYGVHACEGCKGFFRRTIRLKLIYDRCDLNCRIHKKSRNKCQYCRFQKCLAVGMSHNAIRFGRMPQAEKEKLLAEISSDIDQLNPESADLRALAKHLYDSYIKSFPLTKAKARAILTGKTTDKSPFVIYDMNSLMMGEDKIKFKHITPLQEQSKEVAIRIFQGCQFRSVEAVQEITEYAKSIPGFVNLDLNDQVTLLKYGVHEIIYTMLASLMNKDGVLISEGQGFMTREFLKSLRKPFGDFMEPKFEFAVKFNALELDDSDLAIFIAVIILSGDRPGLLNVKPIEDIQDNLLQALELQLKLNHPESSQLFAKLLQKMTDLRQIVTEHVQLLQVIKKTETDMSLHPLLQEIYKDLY
Experiment: Luciferase reporter gene analysis (FABP4-Luc) of PPARγ2 transcriptional activity in 293T cells
Format: cell-based
Set-up: expressed in transfected cells; host or cells: 293T cells
Details: for sLZIP-mediated PPARγ2 transcriptional activity (luciferase): 293T cells expressing sLZIP, 100 nM si-RNAs, with or without 10 nM RZD
Protocol: C3H10T1/2 and 293T cells were plated in a 12-well culture dish at a density of 2×10^5 cells/well and incubated for 24 hours. Then, according to instructions of the manufacturer, the cells were transfected with a 0.2 μg of reporter genes and 0.1 to 0.5 μg of a laboratory plasmid using Lipofectamine 2000 or Genefectine. After 24 hours, the cells were cultured in a serum-free DMEM with or without 10 nM of rosiglitazone. siRNAs were prepared using sLZIP and HDAC target sequences (Table 1). For an RNA interference experiment, according to instructions of the manufacturer, the cells were transfected with scrambled control group RNA and appropriate siRNAs using Lipofectamine 2000. Human MSC and C3H10T/1/2 cells were infected with an adenovirus vector containing cDNA of human sLZIP or an empty vector. The infected medium was exchanged with a fresh medium after two hours.
Appropriately transfected cells were washed with cold PBS twice, and a reporter lysis buffer (Promega) was used and lysed in a culture dish. Luciferase analysis was performed using a luciferase analysis system (Promega Corporation, Madison, Wis.). A luciferase activity was recorded in Luminometer 20/20^n (Turner BioSystems, Sunnyvale, Calif.) according to instructions of the manufacturer. The luciferase activity was normalized to a β-galactosidase activity. For β-galactosidase analysis, CMV-β-galactosidase was transfected with luciferase reporter genes. All pieces of data were represented as mean±standard deviation of the results from at least three independent experiments.
In order to examine an effect of sLZIP on the transcriptional activity of PPARγ2, 293T cells were temporarily transfected with PPARγ2 (0.5 μg), β-galactosidase (0.1 μg), FABP4-Luc reporter genes (0.2 μg) and sLZIP at different contents (0.1 to 0.5 μg). After the transfection, the cells were stimulated with or without 10 nM of rosiglitazone (RZD) (FIG. 1A), pioglitazone (PZD) (FIG. 1B), and troglitazone (TZD) (FIG. 1C). A relative luciferase activity was analyzed with or without cell ligand treatment 24 hours after transfection. Also, the 293T cells were transiently transfected with si-sLZIP at different contents (50 and 100 nM), and the cells were treated or not treated with RZD (FIG. 1D). FABP4-Luc stable C3H10T1/2 cells were infected with a sLZIP-expressing adenovirus, and then differentiated into adipocytes for 4 days (FIG. 1E). A luciferase activity was normalized to a β-galactosidase activity and represented as a relative activity (fold change). All experiments were repeated three times, and bars in the graph represent mean±standard deviation. *, P<0.05; **, P<0.01
For this purpose, 293T cells were transiently transfected with PPARγ2 (0.5 μg), (3-galactosidase (0.1 μg), FABP4-Luc reporter genes (0.2 μg) and sLZIP (0.1 μg). After the transfection, the cells were stimulated with or without 10 nM of RZD and 10 nM of TSA (FIG. 4A). A promoter activity was measured according to luciferase analysis. In the 293T cells, FABP4-Luc reporter genes, sLZIP, PPAR, β-galactosidase, and 100 nM of si-RNAs and HDAC1, 2, 3 and 8 for a control group were expressed. After the transfection, the cells were stimulated with or without 10 nM of RZD, and a promoter activity was measured (FIG. 4B). 293T cells were temporarily transfected with FABP4-Luc reporter genes, PPARγ2, β-galactosidase, HDAC3 (0.5 μg) and sLZIP (0.1 μg). After the transfection, the cells were stimulated with or without 10 nM of RZD, and luciferase analysis was performed (FIG. 4C). A luciferase activity was normalized to a β-galactosidase activity and represented as a relative intensity (fold change). All experiments were repeated three times, and bars in the graph represent mean±standard deviation. GFP-sLZIP expression constructs were expressed in C3H10T1/2 cells, rabbit anti-HDAC3 antibodies and Texas Red-labeled anti-rabbit antibodies were used and analysis was performed under a fluorescence microscope. The nucleus was stained with DAPI (FIG. 4D). […]

Substance: si-sLZIP: siRNA for sLZIP, SEQ ID NO: 5 and 6 (+dTdT) (chain 1 GGACCCAGAUGACUCCACAGCAUAU; chain 2 AUAUGCUGUGGAGUCAUCUGGGUCC; RNA, 3' dTdT, backbone not given here) [reference compound]
- transcriptional activity of PPARγ2 (relative luciferase activity) (293T cells, si-sLZIP 50 and 100 nM, treated or not treated with RZD): increased the transcriptional activity of PPARγ2

Substance: siRNA for HDAC1: siRNA with HDAC1 target sequence, SEQ ID NO: 7 and 8 (chain 1 CGACUGUUUGAGAACCUUA; chain 2 UAAGGUUCUCAAACAGUCGCU; RNA, 3' dTdT, backbone not given here) [reference compound]
- sLZIP-mediated PPARγ2 transcriptional activity (luciferase): not involved in sLZIP-mediated PPARγ2 regulation

Substance: siRNA for HDAC2: siRNA with HDAC2 target sequence, SEQ ID NO: 9 and 10 (chain 1 GGUCAAUAAGACCAGAUAA; chain 2 UUAUCUGGUCUUAUUGACCG; RNA, 3' dTdT, backbone not given here) [reference compound]
- sLZIP-mediated PPARγ2 transcriptional activity (luciferase): not involved in sLZIP-mediated PPARγ2 regulation

Substance: siRNA for HDAC3: siRNA with HDAC3 target sequence, SEQ ID NO: 11 and 12, used to knock down HDAC3 (chain 1 GCCGGUUAUCAACCAGGUA; chain 2 UACCUGGUUGAUAACCGGC; RNA, 3' dTdT, backbone not given here) [reference compound]
- sLZIP-mediated PPARγ2 transcriptional activity (luciferase): significantly increased

Substance: siRNA for HDAC8: siRNA with HDAC8 target sequence, SEQ ID NO: 13 and 14 (chain 1 CAUUCAGGAUGGCAUACAA; chain 2 UUGUAUGCCAUCCUGAAUGGG; RNA, 3' dTdT, backbone not given here) [reference compound]
- sLZIP-mediated PPARγ2 transcriptional activity (luciferase): not involved in sLZIP-mediated PPARγ2 regulation
